Literature values as cited in patent US10398673B2, “Mast cell stabilizers treatment for systemic disorders” (Respivant Sciences GmbH, priority 2014, dated 2019).

oral bioavailability: less than 1%
SMILES: O=C(O)c1cc(=O)c2c(OCC(O)COc3cccc4oc(C(=O)O)cc(=O)c34)cccc2o1 [cromolyn sodium]
